Source: patent US6472348B1, “Pyridone derivatives and herbicides” (Kumiai Chemical Industry Co., Ltd., priority 1996, dated 2002)

Legend:
Assay type in all cases: in vivo
Parameters in all cases: scale not given here
[1] = tested on: China jute (Ab); test: Test Example 6: crop plant selectivity by upland field soil treatment (soybean), herbicidal effects; details: 21st day after application
Procedure, shortened: (§1)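 Seeds are sown in sand and covered with soil. The soil is treated with test compound. Pots are kept in a greenhouse. Weed control and soybean damage are rated visually 21 days after application.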

[2] = tested on: green foxtail (Se); test: as above; details: 21st day after application
Procedure, shortened: as §1

[3] = tested on: common lambsquarters (Ch); test: as above; details: 21st day after application
Procedure, shortened: as §1

[4] = tested on: pale smartweed (Po); test: as above; details: 21st day after application
Procedure, shortened: as §1

[5] = tested on: China jute (Ab); test: Test Example 5: crop plant selectivity by upland field soil treatment (wheat), herbicidal effects; details: 21st day after application
Procedure, shortened: (§2)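 Upland soil-treatment selectivity test: crop and weed seeds are sown together in sand-filled pots, soil-covered, then treated and grown under glass until rating at 21 days.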

[6] = tested on: slender amaranth (Am); test: as above; details: 21st day after application
Procedure, shortened: as §2

[7] = tested on: green foxtail (Se); test: as above; details: 21st day after application
Procedure, shortened: as §2

[8] = tested on: common lambsquarters (Ch); test: as above; details: 21st day after application
Procedure, shortened: as §2

[9] = tested on: pale smartweed (Po); test: as above; details: 21st day after application
Procedure, shortened: as §2

[10] = tested on: cotton (Go); test: Test Example 4: crop plant selectivity by upland field soil treatment (cotton), phytotoxicity; details: evaluated 21st day after application
Procedure, shortened: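 Cotton is sown alongside weeds in pots of sand, covered with soil, and the soil surface is treated. After greenhouse growth, herbicidal activity and phytotoxicity are graded on the 21st day.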

SMILES: CCON=Cc1cc(-c2ccc(C(F)(F)F)n(C)c2=O)c(F)cc1Cl [Compound 1-187]
- Herbicidal effects Ab ([1]; dose 6.3 g ai/10a): 5
- Herbicidal effects Se ([2]; dose 6.3 g ai/10a): 5
- Herbicidal effects Ch ([3]; dose 6.3 g ai/10a): 5
- Herbicidal effects Po ([4]; dose 6.3 g ai/10a): 5
- Herbicidal effects Ab ([5]; dose 6.3 g ai/10a): 5
- Herbicidal effects Am ([6]; dose 6.3 g ai/10a): 5
- Herbicidal effects Se ([7]; dose 6.3 g ai/10a): 5
- Herbicidal effects Ch ([8]; dose 6.3 g ai/10a): 5
- Herbicidal effects Po ([9]; dose 6.3 g ai/10a): 5
- Phytotoxicity Go ([10]; dose 6.3 g ai/10 a): 0

SMILES: CCOC(=O)CON=Cc1cc(-c2ccc(C(F)(F)F)n(C)c2=O)c(F)cc1Cl [Compound 1-191]
- Herbicidal effects Ab ([1]; dose 6.3 g ai/10a): 5
- Herbicidal effects Se ([2]; dose 6.3 g ai/10a): 5
- Herbicidal effects Ch ([3]; dose 6.3 g ai/10a): 5
- Herbicidal effects Po ([4]; dose 6.3 g ai/10a): 5
- Herbicidal effects Ab ([5]; dose 6.3 g ai/10a): 5
- Herbicidal effects Am ([6]; dose 6.3 g ai/10a): 5
- Herbicidal effects Se ([7]; dose 6.3 g ai/10a): 5
- Herbicidal effects Ch ([8]; dose 6.3 g ai/10a): 5
- Herbicidal effects Po ([9]; dose 6.3 g ai/10a): 5
- Phytotoxicity Go ([10]; dose 6.3 g ai/10 a): 1

SMILES: C=CC(O)c1cc(-c2ccc(C(F)(F)F)n(C)c2=O)c(F)cc1Cl (stereo not shown) [Compound 1-197]
- Herbicidal effects Ab ([1]; dose 6.3 g ai/10a): 5
- Herbicidal effects Se ([2]; dose 6.3 g ai/10a): 5
- Herbicidal effects Ch ([3]; dose 6.3 g ai/10a): 5
- Herbicidal effects Po ([4]; dose 6.3 g ai/10a): 5
- Herbicidal effects Ab ([5]; dose 6.3 g ai/10a): 5
- Herbicidal effects Am ([6]; dose 6.3 g ai/10a): 5
- Herbicidal effects Se ([7]; dose 6.3 g ai/10a): 5
- Herbicidal effects Ch ([8]; dose 6.3 g ai/10a): 5
- Herbicidal effects Po ([9]; dose 6.3 g ai/10a): 5
- Phytotoxicity Go ([10]; dose 6.3 g ai/10 a): 1

SMILES: C#CC(O)c1cc(-c2ccc(C(F)(F)F)n(C)c2=O)c(F)cc1Cl (stereo not shown) [Compound 1-202]
- Herbicidal effects Ab ([1]; dose 1.6 g ai/10a): 5
- Herbicidal effects Se ([2]; dose 1.6 g ai/10a): 5
- Herbicidal effects Ch ([3]; dose 1.6 g ai/10a): 5
- Herbicidal effects Po ([4]; dose 1.6 g ai/10a): 5
- Herbicidal effects Ab ([5]; dose 1.6 g ai/10a): 5
- Herbicidal effects Am ([6]; dose 1.6 g ai/10a): 5
- Herbicidal effects Se ([7]; dose 1.6 g ai/10a): 5
- Herbicidal effects Ch ([8]; dose 1.6 g ai/10a): 5
- Herbicidal effects Po ([9]; dose 1.6 g ai/10a): 5
- Phytotoxicity Go ([10]; dose 1.6 g ai/10 a): 1
- Phytotoxicity Go ([10]; dose 6.3 g ai/10 a): 1

SMILES: CSCOc1cc(-c2ccc(C(F)(F)F)n(C)c2=O)c(F)cc1Cl [Compound 1-208]
- Herbicidal effects Ab ([1]; dose 6.3 g ai/10a): 5
- Herbicidal effects Se ([2]; dose 6.3 g ai/10a): 5
- Herbicidal effects Ch ([3]; dose 6.3 g ai/10a): 5
- Herbicidal effects Po ([4]; dose 6.3 g ai/10a): 4
- Herbicidal effects Ab ([5]; dose 6.3 g ai/10a): 5
- Herbicidal effects Am ([6]; dose 6.3 g ai/10a): 5
- Herbicidal effects Se ([7]; dose 6.3 g ai/10a): 5
- Herbicidal effects Ch ([8]; dose 6.3 g ai/10a): 5
- Herbicidal effects Po ([9]; dose 6.3 g ai/10a): 4
- Phytotoxicity Go ([10]; dose 6.3 g ai/10 a): 1

SMILES: C=CCN1C(=O)COc2cc(F)c(-c3ccc(C(F)(F)F)n(C)c3=O)cc21 [Compound 2-7]
- Herbicidal effects Ab ([1]; dose 1.6 g ai/10a): 5
- Herbicidal effects Ab ([1]; dose 6.3 g ai/10a): 5
- Herbicidal effects Se ([2]; dose 1.6 g ai/10a): 5
- Herbicidal effects Se ([2]; dose 6.3 g ai/10a): 5
- Herbicidal effects Ch ([3]; dose 1.6 g ai/10a): 5
- Herbicidal effects Ch ([3]; dose 6.3 g ai/10a): 5
- Herbicidal effects Po ([4]; dose 1.6 g ai/10a): 5
- Herbicidal effects Po ([4]; dose 6.3 g ai/10a): 5
- Herbicidal effects Ab ([5]; dose 1.6 g ai/10a): 5
- Herbicidal effects Am ([6]; dose 1.6 g ai/10a): 5
- Herbicidal effects Se ([7]; dose 1.6 g ai/10a): 5
- Herbicidal effects Ch ([8]; dose 1.6 g ai/10a): 4
- Herbicidal effects Po ([9]; dose 1.6 g ai/10a): 5
- Phytotoxicity Go ([10]; dose 1.6 g ai/10 a): 0
- Phytotoxicity Go ([10]; dose 6.3 g ai/10 a): 1

SMILES: C#CCN1C(=O)COc2cc(Cl)c(-c3ccc(C(F)(F)F)n(C)c3=O)cc21 [Compound 2-25]
- Herbicidal effects Ab ([1]; dose 1.6 g ai/10a): 5
- Herbicidal effects Ab ([1]; dose 6.3 g ai/10a): 5
- Herbicidal effects Se ([2]; dose 1.6 g ai/10a): 5
- Herbicidal effects Se ([2]; dose 6.3 g ai/10a): 5
- Herbicidal effects Ch ([3]; dose 1.6 g ai/10a): 5
- Herbicidal effects Ch ([3]; dose 6.3 g ai/10a): 5
- Herbicidal effects Po ([4]; dose 1.6 g ai/10a): 5
- Herbicidal effects Po ([4]; dose 6.3 g ai/10a): 5
- Herbicidal effects Ab ([5]; dose 1.6 g ai/10a): 5
- Herbicidal effects Ab ([5]; dose 6.3 g ai/10a): 5
- Herbicidal effects Am ([6]; dose 1.6 g ai/10a): 5
- Herbicidal effects Am ([6]; dose 6.3 g ai/10a): 5
- Herbicidal effects Se ([7]; dose 1.6 g ai/10a): 5
- Herbicidal effects Se ([7]; dose 6.3 g ai/10a): 5
- Herbicidal effects Ch ([8]; dose 1.6 g ai/10a): 5
- Herbicidal effects Ch ([8]; dose 6.3 g ai/10a): 5
- Herbicidal effects Po ([9]; dose 1.6 g ai/10a): 5
- Herbicidal effects Po ([9]; dose 6.3 g ai/10a): 5
- Phytotoxicity Go ([10]; dose 1.6 g ai/10 a): 0
- Phytotoxicity Go ([10]; dose 6.3 g ai/10 a): 0

SMILES: C=CCN1C(=O)COc2cc(Cl)c(-c3ccc(C(F)(F)F)n(C)c3=O)cc21 [Compound 2-26]
- Herbicidal effects Ab ([1]; dose 6.3 g ai/10a): 5
- Herbicidal effects Se ([2]; dose 6.3 g ai/10a): 5
- Herbicidal effects Ch ([3]; dose 6.3 g ai/10a): 5
- Herbicidal effects Po ([4]; dose 6.3 g ai/10a): 5
- Herbicidal effects Ab ([5]; dose 6.3 g ai/10a): 5
- Herbicidal effects Am ([6]; dose 6.3 g ai/10a): 5
- Herbicidal effects Se ([7]; dose 6.3 g ai/10a): 5
- Herbicidal effects Ch ([8]; dose 6.3 g ai/10a): 5
- Herbicidal effects Po ([9]; dose 6.3 g ai/10a): 5
- Phytotoxicity Go ([10]; dose 6.3 g ai/10 a): 1

SMILES: Cc1cc2c(-c3ccc(C(F)(F)F)n(C)c3=O)c(F)cc(Cl)c2o1 [Compound 4-1]
- Herbicidal effects Ab ([1]; dose 1.6 g ai/10a): 5
- Herbicidal effects Ab ([1]; dose 6.3 g ai/10a): 5
- Herbicidal effects Se ([2]; dose 1.6 g ai/10a): 5
- Herbicidal effects Se ([2]; dose 6.3 g ai/10a): 5
- Herbicidal effects Ch ([3]; dose 1.6 g ai/10a): 5
- Herbicidal effects Ch ([3]; dose 6.3 g ai/10a): 5
- Herbicidal effects Po ([4]; dose 1.6 g ai/10a): 5
- Herbicidal effects Po ([4]; dose 6.3 g ai/10a): 5
- Herbicidal effects Ab ([5]; dose 1.6 g ai/10a): 5
- Herbicidal effects Ab ([5]; dose 6.3 g ai/10a): 5
- Herbicidal effects Am ([6]; dose 1.6 g ai/10a): 5
- Herbicidal effects Am ([6]; dose 6.3 g ai/10a): 5
- Herbicidal effects Se ([7]; dose 1.6 g ai/10a): 5
- Herbicidal effects Se ([7]; dose 6.3 g ai/10a): 5
- Herbicidal effects Ch ([8]; dose 1.6 g ai/10a): 5
- Herbicidal effects Ch ([8]; dose 6.3 g ai/10a): 5
- Herbicidal effects Po ([9]; dose 1.6 g ai/10a): 5
- Herbicidal effects Po ([9]; dose 6.3 g ai/10a): 5
- Phytotoxicity Go ([10]; dose 1.6 g ai/10 a): 0
- Phytotoxicity Go ([10]; dose 6.3 g ai/10 a): 1

SMILES: CCc1cc2c(-c3ccc(C(F)(F)F)n(C)c3=O)c(F)cc(Cl)c2o1 [Compound 4-2]
- Herbicidal effects Ab ([1]; dose 1.6 g ai/10a): 5
- Herbicidal effects Se ([2]; dose 1.6 g ai/10a): 5
- Herbicidal effects Ch ([3]; dose 1.6 g ai/10a): 5
- Herbicidal effects Po ([4]; dose 1.6 g ai/10a): 5
- Herbicidal effects Ab ([5]; dose 1.6 g ai/10a): 5
- Herbicidal effects Am ([6]; dose 1.6 g ai/10a): 5
- Herbicidal effects Se ([7]; dose 1.6 g ai/10a): 5
- Herbicidal effects Ch ([8]; dose 1.6 g ai/10a): 5
- Herbicidal effects Po ([9]; dose 1.6 g ai/10a): 5
- Phytotoxicity Go ([10]; dose 1.6 g ai/10 a): 1
- Phytotoxicity Go ([10]; dose 6.3 g ai/10 a): 2
